Laboratory results taken from US20260199384A1, “METHOD AND COMPOSITIONS FOR TREATING SKIN DISORDERS” (PHOENIX ANIMAL WELLNESS, INC., priority 2023, published 2026).
pIC50: −log10 of the molar value.

Assays:
[1] = tested on: murine CD4+ and CD8+ T cells; conditions: not IFN-γ-producing cells; cited from earlier work
[2] = tested on: Primary canine dermal fibroblasts; experiment: Cytokine assay in primary dermal fibroblast cultures (Example 26); type: cell-based
[3] = tested on: JAK kinases; conditions: range over JAK kinases; read-out: IC50, inhibition of JAK kinases; cited from earlier work
[4] = tested on: JAK1-dependent cytokines involved in allergy and inflammation (IL-2, IL-4, IL-6, and IL-13) as well as pruritus (IL-31); conditions: published data; cited from earlier work
[5] = tested on: erythropoietin, granulocyte/macrophage colony-stimulating factor, IL-12, IL-23; conditions: GM-CSF, read-out: IC50's, cytokines that do not activate the JAK1 enzyme in cells; cited from earlier work
[6] = tested on: T cell proliferation; conditions: published data; cited from earlier work
[7] = tested on: canine DH82 macrophage cell line; experiment: Cytokine assay in DH82 macrophage cultures (Example 26); type: cell-based
[8] = tested on: Natural Killer (NK) cells and monocytes; experiment: Immune cell activation in PBMC cultures (CD69, CD25; Example 13); type: cell-based, human
Procedure: Immune cell activation. Peripheral venous blood was drawn from healthy human donors upon written informed consent, as approval by the Sky Lakes Medical Center Institutional Review Board, Federalwide Assurance 2603. The blood was drawn into heparin vacutainer vials, and the peripheral blood mononuclear cells (PBMC) were isolated using Lympholyte Poly by centrifugation for 35 min at 400×g. The PBMC were washed twice in PBS and counted, and the density was adjusted to establish 0.18 mL cultures with a cell density at 106/mL, using Roswell Park Memorial Institute 1640 medium containing 10% fetal calf serum and 1% penicillin-streptomycin.
Cultures were then incubated at 37° C., 5% CO2 for 24 h. The highly inflammatory LPS from Escherichia coli was used as a positive control for immune-cell activation. In parallel, IL-2 was used as a positive control for natural killer (NK)-cell activation, at a concentration of 100 IU/mL in cell culture. Untreated negative control cultures consisted of PBMC exposed to phosphate-buffered saline in the absence of test products. […] The fluorescence intensities for CD3, CD25, CD56, and CD69 were measured by flow cytometry, using an Attune NxT acoustic-focusing flow cytometer (Thermo Fisher Scientific, Waltham, MA, USA). […] The lymphocyte subpopulation was further analyzed for CD25 and CD69 expression on CD3−CD56+ NK cells, CD3+ CD56+ NKT cells, and CD3+CD56− T cells.

[9] = tested on: human peripheral blood mononuclear cells; experiment: Cytokine, chemokine and growth factor production in human PBMC cultures (Example 13); type: cell-based
From the text: Proof of the antipruritic activity of oleandrin was established in vitro according to Example 13 by measuring its effect upon on the expression of key cytokines, chemokines, and other factors that are part of the innate immune system. An in vitro model of human peripheral blood mononuclear cells was used to determine effects the effects of OCC under different culture conditions: normal (no inflammation) and inflamed by lipopolysaccharide (LPS).
Reagents. Dulbecco's phosphate-buffered saline (Gibco cat. #141190-136), lipopolysaccharide (LPS) (Invitrogen cat. #00-4976-93), Roswell Park Memorial Institute 1640 cell culture medium (Gibco cat. #11835-030), Fetal Bovine Serum (Gibco cat. #A38401-01), penicillin-streptomycin 100× (Gibco cat. #15140-122), CD69 fluorescein isothiocyanate (clone FN50, Invitrogen cat. #11-0699-42), CD56 phycoerythrin (clone CMSSB Invitrogen cat. #12-0567-42), and CD3 Super Bright 645 (clone OKT3 Invitrogen cat. #64-0037-42) were purchased from Thermo Fisher Scientific (Waltham, MA, USA). CD25 Brilliant Violet 421 (clone 2A3 BD cat. #564033) and sodium heparin Vacutainer tubes (BD cat. #367878) were purchased from Becton-Dickinson (Franklin Lakes, NJ, USA). The human erythroleukemia cell line K562 was purchased from American Type Culture Collection (Manassas, VA, USA). Customized Bio-Plex Pro™ human cytokine arrays were purchased from Bio-Rad Laboratories Inc. (Hercules, CA, USA). […]
The two products were handled in the following manner: (1) A stock solution of PBI was prepared in DMSO, and subsequent dilutions were prepared in phosphate-buffered saline. […] The range of concentrations in cell cultures was calculated based on the % oleandrin and ranged from 0.5 to 500 ng oleandrin/mL cell culture medium. […]
Immune cell activation. […] The PBMC were washed twice in PBS and counted, and the density was adjusted to establish 0.18 mL cultures with a cell density at 106/mL, using Roswell Park Memorial Institute 1640 medium containing 10% fetal calf serum and 1% penicillin-streptomycin. […]

[10] = tested on: dogs suffering from pruritus or atopic dermatitis; experiment: Treatment of pruritus / atopic dermatitis in dogs (Examples 14, 15, 28); type: in vivo, dog; conditions: oral, 1-2 times daily, 2-6 or 3-5 microg oleandrin/Kg
Procedure: A dog presenting with pruritus was administered the aqueous liquid composition of Example 2. It contained 0.1-5 μg OLE/mL. The composition (0.25-1 mL) was administered (1-4 times daily) directly to the dog's mouth, thereby resulting in a combination of buccal and sublingual administration. […] Both inflammation and itchiness were relieved.
A dog presenting with pruritus was administered the MCT-based composition of Example 21. It contained 12-25 μg OLE/mL. A few drops of the composition (0.25-1 mL) is administered (1-4 times daily) directly to the dog's mouth, thereby resulting in a combination of buccal and sublingual administration. […] Both inflammation and itchiness were relieved.
A dog presenting with pruritus was administered the aqueous liquid composition of Example 11. The composition was sprayed (1-4 pumps) directly onto the itchy area of the dog and rubbed into the skin and fur/hair. […] Both inflammation and itchiness were relieved.
Oleandrin (oleander extract) was orally administered in two different forms. The oil-based formulation of Example 21 was sprayed onto dog treats and administered between meals or sprayed onto dog food and administered as part of a meal. The chews of Example 27 were orally administered between meals. Both products were administered 1-2 times daily at doses ranging from 2-6 (preferably 3-5) microg oleandrin/Kg of bodyweight. […]

[11] = tested on: K562 human myelogenous leukemia target cells; experiment: Cytotoxicity towards K562 target cells (CD107a; Example 13); type: cell-based; conditions: PBMC co-cultured with K562
From the text: Natural killer (NK) cell cytotoxicity towards K562 human myelogenous leukemia target cells. The cell surface expression of CD107a (LAMP-1) is a marker for secretory degranulation of NK and activated cytotoxic T cells when they are co-cultured with malignant or virus-infected target cells. Peripheral blood mononuclear cells from healthy human donors were co-cultured with K562 cells in the absence versus presence of test products or matching concentrations of the DMSO solvent control. All treatments, including each concentration of test product and each positive and negative control, were tested in triplicate. CD107a-FITC antibody (6.5 μL/well) was added at the beginning of each culture, along with the protein transport inhibitor BD GolgiStop™, which contains Monensin and blocks intracellular protein transport processes. After 4 h of incubation at 37° C., 5% CO2, the cells were washed in phosphate-buffered saline and stained with CD3-PerCP and CD56-PE antibodies and then fixed in formalin. Flow cytometry analysis was performed where the strategy involved initial gating of the lymphocyte and monocyte subpopulations using the forward/side scatter plot, followed by analysis of T cells and NK cells in the lymphocyte population. The fluorescence intensity of CD107a was evaluated as the mean fluorescence intensity on monocytes, NK cells, and T cells.

[12] = tested on: BT (Bos taurus turbinate), MDBK (Bos taurus kidney) and MARC 145 (monkey kidney) cells; experiment: Lactate dehydrogenase release assay (LDH assay), Example 18; type: cell-based; conditions: up to concentrations of 1 microg/mL
Procedure: Oleandrin (PhytoLab, Vestenbergsgreuth, Germany) was dissolved at a concentration of 1 mg/ml in DMSO. The desired concentration range to be used in cytotoxicity testing is 0.005-1 ug/ml in 0.0005-0.1% wt in DMSO, respectively. Lactate dehydrogenase release assay (LDH assay) was be used to determine the cytotoxic effect of different concentration of Oleandrin on different cell cultures. LDH is a cytosolic enzyme that is released only from damaged cells (due to increased membrane permeability) to the outside medium that will convert the lactate in the medium into pyruvate in a coupled reaction that includes the reduction of NAD+ into NADH, the latter is oxidized back to NAD+ in the presence of Diaphorase in the LDH kit mix that leads to the reduction of water soluble tetrazolium (INT), that is also in the kit mix, into red Formazon product that can be read by an ELISA reader at a wave length of 490 nm. […]
This was achieved by preparing different concentration of cells in 100 μl volume staring at 1000 cell/100 μl to 20,000 cell/100 μl in a 2-fold serial dilution manner. […] After performing the test according to the manufacturer instructions, the average OD value reading of the triplicate for each dilution in each set was taken and plotted against number of cells. […] Absorbance is measured at 490 nm and 680 nm using Spectramax i3x. […]

SMILES | frequency of IL-4- and IL-10-producing murine CD4+ and CD8+ T cells [1] | levels of IL-8 and MCP-1 [2] | pIC50 [3] | concentrations at which anti-inflammatory properties have been reported [4] [nM] | pIC50 [5] | concentration at which inhibition of T cell proliferation was seen [6] [µM] | IL-6, IFN-γ, and NGF-β ([7]; cytokines involved in dermal inflammation) | TGF-β1, IL12/IL-23p40, and TNF-α ([7]; less robust than the reductions triggered by OE and oleandrin) | activation of Natural Killer (NK) cells and monocytes [8] | production of cytokines [9] | expression of IFN-γ, G-CSF, and IL-6 ([9]; 0.5 to 500 ng oleandrin/mL) | formation/expression of IL-21, IL-22, IL-23, IL-25, IL-31, IL-33, and TNF-α ([9]; 0.5 to 500 ng oleandrin/mL) | time until improvements became evident [10] [days] | itching and scratching ([10]; as included in an oleander extract) | IL-6, IL-12/IL-23p40, IFN-γ, TNF-α, VEGF, and NGF-β ([7]; DH82 macrophage cultures, inflamed conditions (LPS), 24 hours) | T cell cytotoxic attack on malignant target cells [11] | toxicity, release of lactate dehydrogenase [12]
CNS(=O)(=O)C[C@H]1CC[C@H](N(C)c2ncnc3[nH]ccc23)CC1 [oclacitinib] | reduces | little or no effect | 7.00 to 8.00 | 36 to 249 | < 6.00 | 10 | increases | reductions |  |  |  |  |  |  |  |  | 
CO[C@H]1C[C@H](O[C@H]2CC[C@@]3(C)[C@H](CC[C@@H]4[C@@H]3CC[C@]3(C)[C@@H](C5=CC(=O)OC5)[C@@H](OC(C)=O)C[C@]43O)C2)O[C@@H](C)[C@@H]1O [oleandrin] |  | reduced |  |  |  |  |  |  | directly activated | increased | induced | suppressed | 1 to 3 | significant reduction in itching and scratching | reductions | increased | no additional toxicity over control vehicle
